Experimental data published in patent US20070059785A1, “Biomarkers in cancer” (SMITHKLINE BEECHAM CORPORATION, priority 2003, published 2007).
“Also recorded” adds a separate entry of the source.

Columns and labels:
erbB2 [1] = biological target: T1, erbB2 (Homo sapiens, UniProt P04626); experiment: BT474 tumor xenograft, p-Tyr/ErbB-2 and total ErbB-2 by Western blot; assay type: in vivo, C.B-17 SCID mice; settings: 100 mg/kg
Description: The tumor implant was removed after the final treatment dose. Activated receptor (p-Tyr/ErbB-2) was assessed by IP Western blot and total ErbB-2 steady state protein (ErbB-2), total Erk1/2 and activated Erk1/2 (p-Erk1/2) were assessed by Western blot loading equal amounts of protein from tumor biopsies.
Cell extracts were prepared by homogenization as described for HN5 xenografts.
BT474 tumor xenografts (subcutaneous) were established as described in Materials and Methods. […] Controls were treated with vehicle alone. […] Activated receptor (p-Tyr/ErbB-2) was assessed by IP Western blot and total ErbB-2 steady state protein (ErbB-2), total Erk1/2 and activated Erk1/2 (p-Erk1/2) were assessed by Western blot loading equal amounts of protein from tumor biopsies.

Erk1/2 [2] = experiment: Tumor xenografts, phospho-Erk1/2 and total Erk1/2 by quantitative IHC; assay type: in vivo, mice; settings: data not shown
Description: DAB (Dako) was used as the chromogen.
Inhibition of erbB2/EGFR p-tyr in turn led to the inhibition of downstream activated, phospho-Erk1/2.

AKT = experiment: HN5 tumor xenograft, p-AKT and total AKT by Western blot; assay type: in vivo, CD-1 nude mice
Description: (§1) Total Erk1/2, total AKT, activated Erk1/2 (p-Erk1/2), and activated AKT (p-AKT) were assessed by Western blot loading equal amounts of protein from tumor biopsies.
HN5 cells were grown in DMEM supplemented with 10% fetal bovine serum, sodium pyruvate and L-glutamine at 37° C. in a 95/5% air/CO2 atmosphere. […] Cells (2×10^6/mouse) in 0.2 ml were injected into the right flank of CD-1 nude mice. Female CD-1 nude mice were acquired from Charles River Laboratories. Mice were maintained in filter-topped cages in an aseptic environment with laminar flow filtered ventilation. […] Tumors were biopsied pre-treatment and 4 hours after the last dose. All animal surgery was conducted under aseptic conditions. For the initial biopsy, mice were anesthetized with isofluorane inhalation. The skin over the tumor was disinfected with iodine. A small hemostat was used to tease away the skin from the tumor, and scissors were used to make a 1 cm incision over the tumor. A scalpel and forceps were used to remove approximately 100 mg of tumor. The tumor was then frozen in liquid nitrogen. Wound clips were used to close the incision. The anesthetized mice were kept warm until they recovered mobility, usually less than 1-2 minutes. For the terminal biopsy, mice were euthanized with CO2 inhalation, and the remainder of the tumor excised. HN5 tumors were placed on dry ice in vials containing cold isopentane, and stored at −80 C prior to study. BT474 tumor samples were fixed for 2-3 hours in phosphatase inhibitor consisting of sodium fluoride and sodium pervanadate in 10% neutral buffered formalin. Following fixative treatment, BT474 samples were washed in water and stored in 70% ethanol prior to study. Cell extracts were prepared by homogenization in RIPA buffer at 4° C.
as §1

erbB2 [3] = biological target: T1, erbB2; experiment: IP Western blot of p-Tyr/erbB2 in BT474 cells, with or without EGF; assay type: cell-based; parameters: endogenous in cells; settings: BT474, 1 μM, 24 h serum-free; not reversed by EGF
Description: (§2) The erbB2 overexpressing human breast adenocarcinoma cell line, BT474, was obtained from the American Type Culture Collection (Rockville, M, USA). […] The EGFR overexpressing LICR-LON-HN5 head and neck carcinoma cell line, HN5, was kindly provided by Helmout Modjtahedi at the Institute of Cancer Research, Surrey, U.K.
Cell cultures were maintained in a humidified atmosphere of 5% CO2 at 37° C.
Protein concentrations were determined using a modification of the Bradford method (Bio-Rad Laboratory).
For IP Western blots, equivalent amounts of protein were precleared with Protein G Plus/Protein A agarose overnight at 4° C. Precleared lysates were then incubated overnight at 4° C. with specific antibodies. Immune complexes were precipitated with Protein G Plus/Protein A agarose beads, washed in RIPA buffer and then boiled in sample loading buffer. Steady state levels of total Erk1/2 and activated Erk1/2 (p-Erk) as well as total AKT protein and activated AKT (p-AKT) protein were assessed by Western blot. […] Proteins were transferred to Immobilon-P or nitrocellulose membranes. Efficiency and equal loading of proteins was evaluated by Ponceau S staining. Membranes were blocked for 1 hr in TBS (25 mM Tris-HCl, pH 7.4, 150 mM NaCl, 2.7 mM KCl) containing 4% (w/v) lowfat milk or 3% BSA (w/v). Membranes were then probed with specific antibodies recognizing target proteins. […]

[4] = Plasma concentration in patients; assay type: in vivo, human; settings: oral once a day
solid tumors = experiment: Open-label clinical study, clinical response (RECIST); assay type: in vivo, human
Erk1/2 [5] = experiment: Western blot of p-Erk1/2 in BT474 cells; assay type: cell-based, human; settings: for p-Erk1/2: BT474, exponentially growing, 72 h
Description: as §2
(§3) For IP Western blots, equivalent amounts of protein were precleared with Protein G Plus/Protein A agarose overnight at 4° C. Precleared lysates were then incubated overnight at 4° C. with specific antibodies. Immune complexes were precipitated with Protein G Plus/Protein A agarose beads, washed in RIPA buffer and then boiled in sample loading buffer. Steady state levels of total Erk1/2 and activated Erk1/2 (p-Erk) as well as total AKT protein and activated AKT (p-AKT) protein were assessed by Western blot. […] Proteins were transferred to Immobilon-P or nitrocellulose membranes. Efficiency and equal loading of proteins was evaluated by Ponceau S staining. Membranes were blocked for 1 hr in TBS (25 mM Tris-HCl, pH 7.4, 150 mM NaCl, 2.7 mM KCl) containing 4% (w/v) lowfat milk or 3% BSA (w/v). Membranes were then probed with specific antibodies recognizing target proteins. Proteins were visualized with the SUPERSIGNAL® West Femto Maximum sensitivity substrate kit (Pierce).
BT474 is an erbB2 overexpressing breast carcinoma line that also expresses EGFR, albeit at lower levels. BT474 cells constitutively express activated erbB2 (p-Tyr/erbB2). […] Cell lysates were prepared and total Erk1/2 and activated Erk1/2 (p-Erk1/2) were assessed by Western blot.

Erk1/2 [6] = experiment: Western blot of p-Erk1/2 in HN5 cells; assay type: cell-based, human; settings: for p-Erk1/2: HN5, exponentially growing, 72 h
Description: as §2, §3
Cell lysates were prepared and total Erk1/2 and activated Erk1/2 (p-Erk1/2) were assessed by Western blot.

p-ERK = experiment: Antibody staining of p-ERK localization in MCF7/erbB2 cells; assay type: cell-based, human; settings: 10 uM, results not shown
Erk1/2 [7] = experiment: Western blot of p-Erk1/2 in Hb4a cells; assay type: cell-based, human; settings: 5 μM, 72 h, not reversed by EGF
Description: The EGFR overexpressing LICR-LON-HN5 head and neck carcinoma cell line, HN5, was kindly provided by Helmout Modjtahedi at the Institute of Cancer Research, Surrey, U.K.
as §3
Steady state levels of activated erbB2 and EGFR (p-Tyr/ErbB2 and p-Tyr/EGFR); total erbB2 and EGFR; activated Erk1/2 (p-Erk1/2) and total Erk1/2 were assessed by either IP Western or Western blot.

[8] = patients with >70% decrease in pERK index

T1 sequence (P04626 23-1255): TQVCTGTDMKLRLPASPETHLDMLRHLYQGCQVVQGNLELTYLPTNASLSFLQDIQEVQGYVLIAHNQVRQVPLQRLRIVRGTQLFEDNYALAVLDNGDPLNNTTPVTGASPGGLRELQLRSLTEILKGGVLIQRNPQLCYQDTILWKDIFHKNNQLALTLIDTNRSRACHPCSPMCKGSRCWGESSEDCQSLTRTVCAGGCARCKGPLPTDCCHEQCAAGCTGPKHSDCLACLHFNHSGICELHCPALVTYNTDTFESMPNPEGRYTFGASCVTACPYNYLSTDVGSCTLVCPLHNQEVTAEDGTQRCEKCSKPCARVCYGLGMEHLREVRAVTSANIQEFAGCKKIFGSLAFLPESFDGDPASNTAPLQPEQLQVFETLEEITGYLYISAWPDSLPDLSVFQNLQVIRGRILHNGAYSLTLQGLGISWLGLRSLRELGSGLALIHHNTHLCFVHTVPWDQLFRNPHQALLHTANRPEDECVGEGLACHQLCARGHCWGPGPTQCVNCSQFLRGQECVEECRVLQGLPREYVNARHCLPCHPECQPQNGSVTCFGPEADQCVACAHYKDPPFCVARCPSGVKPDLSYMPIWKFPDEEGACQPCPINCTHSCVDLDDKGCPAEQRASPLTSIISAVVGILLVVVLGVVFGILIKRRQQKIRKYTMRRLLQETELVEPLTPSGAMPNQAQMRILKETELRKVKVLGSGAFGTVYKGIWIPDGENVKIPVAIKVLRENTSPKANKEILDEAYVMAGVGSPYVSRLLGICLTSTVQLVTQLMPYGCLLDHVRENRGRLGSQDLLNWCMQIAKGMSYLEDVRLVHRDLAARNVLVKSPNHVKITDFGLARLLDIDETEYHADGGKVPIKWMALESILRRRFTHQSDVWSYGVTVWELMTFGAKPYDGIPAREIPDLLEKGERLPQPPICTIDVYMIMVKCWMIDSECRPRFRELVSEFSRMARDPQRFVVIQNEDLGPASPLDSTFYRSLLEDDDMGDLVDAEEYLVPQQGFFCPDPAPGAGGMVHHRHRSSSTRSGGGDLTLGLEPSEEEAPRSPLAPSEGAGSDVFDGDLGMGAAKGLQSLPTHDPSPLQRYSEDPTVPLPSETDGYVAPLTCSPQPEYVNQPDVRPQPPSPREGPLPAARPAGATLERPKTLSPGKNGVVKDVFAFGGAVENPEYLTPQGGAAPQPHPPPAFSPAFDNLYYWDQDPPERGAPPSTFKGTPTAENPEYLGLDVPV

CS(=O)(=O)CCNCc1ccc(-c2ccc3ncnc(Nc4ccc(OCc5cccc(F)c5)c(Cl)c4)c3c2)o1 [GW572016, N-{3-Chloro-4-[(3-fluorobenzyl)oxy]phenyl}-6-[5-({[2-(methylsulfonyl)ethyl]amino}methyl)-2-furyl]-4-quinazolinamine]
total erbB2 steady state protein levels (erbB2 [1]): without effects
p-Erk1/2 levels (Erk1/2 [2]): reduced
total Erk1/2 protein (Erk1/2 [2]): unaffected
effect on p-AKT (AKT; 10 mg/kg, data not shown): little effect
p-AKT in tumors (AKT; 30 mg/kg/dose): inhibited
total steady state AKT protein levels (AKT; 30 mg/kg/dose): without affecting
baseline levels of p-Tyr/erbB2 (erbB2 [3]): inhibited
time by which steady state plasma concentrations were achieved [4]: ≤ 21 days
metastatic subcutaneous nodules (solid tumors; patient 361, metastatic breast cancer, 1200 mg/day, Day 21): almost all of their metastatic subcutaneous nodules had completely regressed
metastatic lymph node that was sequentially biopsied (solid tumors; patient 364, 1600 mg/day, Day 21): reduced in size
sensitivity of the patient's tumor to treatment (solid tumors; patient 425, inflammatory breast cancer, 1200 mg once per day): very sensitive
Partial Response at eight weeks (solid tumors; [8]): Partial Response: 2/5
Progression at eight weeks (solid tumors; [8]): one and Progression: 1/5
Stable Disease at eight weeks (solid tumors; [8]): Stable Disease: 2/5
Partial Response at eight weeks (solid tumors; patients with no decrease or increase in pERK index): Partial Response: 0/3
EGF stimulation of p-Erk1/2 (Erk1/2 [5]; BT474, 1 μM, 24 h serum-free, EGF 50 ng/ml): inhibited
total Erk1/2 steady state protein levels (Erk1/2 [5]; BT474, 72 h, GW572016 0.5 or 1 μM, Herceptin 10 μg/ml): Neither Herceptin™ nor GW572016 reduced
p-Erk1/2 (Erk1/2 [5]; 500 nM): inhibited
p-Erk1/2 (Erk1/2 [5]; 1 μM): inhibited
downstream p-Erk1/2 (Erk1/2 [6]; HN5, 5 μM, 24 h serum-free, not reversed by EGF): inhibited
total Erk1/2 steady state protein levels (Erk1/2 [6]; HN5, 72 h, GW572016 0.5 or 1 μM, Herceptin 10 μg/ml): Neither Herceptin™ nor GW572016 reduced
p-Erk1/2 (Erk1/2 [6]; 500 nM): inhibited
p-Erk1/2 (Erk1/2 [6]; 1 μM): inhibited
intensity of staining for p-ERK in the nucleus vs control cells (p-ERK): less
baseline amount of p-Erk (Erk1/2 [7]): reduced; also recorded: decreased
